From patent publication US8048986B2, “Reversed mammalian protein-protein interaction trap” (Vlaams Interuniversitair Instituut Voor Biotechnologie VZW, priority 2001, dated 2011)
Entries after “also recorded” stand apart in the source; their conditions may differ.

Target: ALK4-FKBP12 interaction (Homo sapiens, UniProt P62942)
Test: reversed interaction trap: pSELFFY-ALK4 bait with inhibitory prey pMET7-fPPD1-FKBP12, rPAP1-luciferase reporter in HEK293T cells
Format: cell-based
Settings: pSELFFY-ALK4 + pMET7-fPPD1-FKBP12 (1000, 500, 250 ng), FK506 pretreatment, Epo 5 ng/ml after four hours, normalized with irrelevant bait pSELFFY-EpoR, FIG. 6
Experimental: HEK293T cells (six-well plate) were transfected with a combination of the following plasmids:
A representative experiment of triplicate luciferase measurements is shown. The values have been normalized using background luciferase activities (fold induction) and by using an irrelevant bait construct (pSELFFY-EpoR, exp. 4-6) to correct for toxicity of FK506 on the cells.
Two days after transfection, cells were seeded in black well plates (approximately 10,000 cells/well) and pretreated with various concentrations of FK506 as indicated. Epo was added after four hours to the treated cells (5 ng/ml). Twenty-four hours after stimulation, luciferase and beta-galactosidase activities were measured.
The values have been normalized using background luciferase activities (fold induction) and by using an irrelevant bait construct (pSELFFY-EpoR, exp. 4-6) to correct for toxicity of FK506 on the cells.

ALK4-FKBP12 interaction, sequence (P62942 2-107): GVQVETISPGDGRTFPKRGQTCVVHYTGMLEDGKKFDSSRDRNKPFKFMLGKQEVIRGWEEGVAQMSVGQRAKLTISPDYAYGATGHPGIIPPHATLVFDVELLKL
ALK4-FKBP12 interaction, sequence (P18031 1-276 partner limits assumed): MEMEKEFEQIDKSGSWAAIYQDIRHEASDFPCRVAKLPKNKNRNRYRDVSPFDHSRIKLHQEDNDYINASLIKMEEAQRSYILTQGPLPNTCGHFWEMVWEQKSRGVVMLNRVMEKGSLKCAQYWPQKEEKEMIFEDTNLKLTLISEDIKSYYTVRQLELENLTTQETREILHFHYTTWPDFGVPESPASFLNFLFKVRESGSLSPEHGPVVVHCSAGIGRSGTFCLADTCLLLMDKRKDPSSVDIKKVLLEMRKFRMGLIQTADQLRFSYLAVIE

C=CC[C@@H]1/C=C(\C)C[C@H](C)C[C@H](OC)[C@H]2O[C@@](O)(C(=O)C(=O)N3CCCC[C@H]3C(=O)O[C@H](/C(C)=C/[C@@H]3CC[C@@H](O)[C@H](OC)C3)[C@H](C)[C@@H](O)CC1=O)[C@H](C)C[C@@H]2OC [FK506]
restoration of signaling via the pSELFFY-ALK4 bait / block of inhibition by the bait-prey interaction (luciferase activity, fold induction): blocked, in a dose dependent manner; also recorded: partially restores signaling
